Data from the supplement of paper PMC4862054.

Columns and labels:
Assay in all cases: normalised viability (% of control), CellTiter-Blue; higher = more viable cells (about 100 = DMSO control)
Hs578T = settings: 100 nM; incubation time: 72 h
Description: (§1)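 DSRT, CellTiter-Blue viability, 72 h incubation. Signal is normalised to DMSO and benzethonium chloride controls. Value is the normalised response at dose 3.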

BT-549 = settings: 100 nM; incubation time: 72 h
Description: as §1

CAL-51 = settings: 10 nM; incubation time: 72 h
Description: as §1

MDA-MB-468 = settings: 100 nM; incubation time: 72 h
Description: as §1

DU-4475 = settings: 10 nM; incubation time: 72 h
Description: as §1

HCC1599 = settings: 100 nM; incubation time: 72 h
Description: as §1

MDA-MB-453 = settings: 10 nM; incubation time: 72 h
Description: as §1

BT-474 = settings: 100 nM; incubation time: 72 h
Description: as §1

CAL-85-1 = settings: 10 nM; incubation time: 72 h
Description: as §1

MDA-MB-231 = settings: 100 nM; incubation time: 72 h
Description: as §1

MFM-223 = settings: 100 nM; incubation time: 72 h
Description: as §1

HDQ-P1 = settings: 10 nM; incubation time: 72 h
Description: as §1

CAL-120 [1] = settings: 100 nM; incubation time: 72 h
Description: as §1

HCC1143 = settings: 100 nM; incubation time: 72 h
Description: as §1

HCC1937 = settings: 100 nM; incubation time: 72 h
Description: as §1

MDA-MB-436 = settings: 100 nM; incubation time: 72 h
Description: as §1

SK-BR-3 = settings: 100 nM; incubation time: 72 h
Description: as §1

CAL-148 [2] = settings: 10 nM; incubation time: 72 h
Description: as §1

CAL-120 [3] = settings: incubation time: 72 h
Outline: (§2)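 The reported quantity is normalised viability at a single listed concentration of the series. Compound in 5 µl medium was pre-dispensed into 384-well plates and 20 µl of breast cancer cell suspension was added for 72 h. A 2 h, 37 °C CellTiter-Blue step (2.5 µl) preceded fluorescence reading at 560/590 nm, and plates were normalised to vehicle (100) and a positive kill control (0).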

CAL-148 [4] = settings: incubation time: 72 h
Outline: as §2

CS(=O)(=O)c1ccc(C(=O)Nc2ccc(Cl)c(-c3ccccn3)c2)c(Cl)c1 [Vismodegib]
Settings	normalised viability [%]
BT-474	101
BT-549	112
CAL-51	103
CAL-85-1	114
CAL-120 [1]	87.7
CAL-148 [2]	96.8
DU-4475	108
HCC1143	87.7
HCC1599	86.2
HCC1937	107
HDQ-P1	105
Hs578T	80.1
MDA-MB-231	94
MDA-MB-436	85.6
MDA-MB-453	108
MDA-MB-468	113
MFM-223	104
SK-BR-3	66.7

normalised viability [%]
Settings	3 nM	10 nM	30 nM	100 nM	1000 nM	10000 nM
CAL-120 [3]	–	89.7	–	–	90.8	85.6
CAL-148 [4]	79.8	–	93.5	92.2	–	–
